Results taken from patent publication EP4696688A1, “BENZO-FUSED RING COMPOUND INHIBITOR, AND PREPARATION METHOD THEREFOR AND USE THEREOF” (Shanghai Hansoh Biomedical Co., Ltd., priority 2023, dated 2024).

Key:
[1] = target: T1, human CYP11B2 (Homo sapiens, UniProt P19099); assay: G-402 cell enzyme experiment, CYP11B2 (aldosterone product, HTRF); assay type: cell-based; details: G-402 cells stably expressing human CYP11B2, 1 µM 11-deoxycorticosterone, 16 h
T1 construct: The main elements of an expression plasmid include ORF of human CYP11B1 or human CYP11B2; expressed in transfected cells
T1 sequence (P19099 25-503): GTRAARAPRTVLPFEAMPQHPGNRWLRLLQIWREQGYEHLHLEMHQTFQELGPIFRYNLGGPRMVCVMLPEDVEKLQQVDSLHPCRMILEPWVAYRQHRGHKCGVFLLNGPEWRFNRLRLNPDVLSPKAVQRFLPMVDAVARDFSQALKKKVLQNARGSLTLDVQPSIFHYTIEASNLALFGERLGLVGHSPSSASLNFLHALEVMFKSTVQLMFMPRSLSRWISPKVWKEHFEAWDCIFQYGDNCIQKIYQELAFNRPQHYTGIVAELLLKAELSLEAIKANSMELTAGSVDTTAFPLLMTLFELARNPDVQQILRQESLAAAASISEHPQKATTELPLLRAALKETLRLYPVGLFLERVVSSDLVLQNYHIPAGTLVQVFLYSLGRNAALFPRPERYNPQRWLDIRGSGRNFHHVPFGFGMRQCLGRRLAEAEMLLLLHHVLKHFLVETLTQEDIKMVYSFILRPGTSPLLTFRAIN
Source text: (§1) G-402 cell line was used as host cells to express (by transient or stable transfection) an enzyme of the human CYP11 family. Specifically, G-402 cell lines stably expressing human CYP11B1 and human CYP11B2 were established respectively. […] Therefore, the G-402 cell line is very suitable as a host cell for the ectopic expression of an enzyme of the CYP11 family.
(§2) The G-402 cell line, originally derived from renal myoblastoma, can be obtained from ATCC (CRL-1440). The main elements of an expression plasmid include ORF of human CYP11B1 or human CYP11B2, a suitable promoter (CMV promoter), and a suitable resistance marker (neomycin). The expression plasmid was transfected into G-402 cells by standard technology, and a specific antibiotic was then given for screening. The activity of the enzyme expressed by the screened monoclonal cells was assessed by 11-deoxycorticosterone (substrate of CYP11B2) and 11-deoxycortisol (substrate of CYP11B1).
(§3) The G-402 cells expressing CYP11 plasmid, as established in the above solution, were cultured in McCoy's 5a Modified Medium (ATCC Catalog No. 30-2007) containing 10% FCS and 400 µg/ml G418 in an incubator at 37°C and 5% CO2. A cell enzyme experiment was carried out using DMEM/F12 medium containing 2.5% charcoal-treated FBS and an appropriate concentration of a substrate (1 µM 11-deoxycorticosterone or 1 µM 11-deoxycortisol). In order to detect the activity of the enzyme in the cells, the cells were plated in a 96-well plate and incubated for 16 h. The supernatant was then transferred and analyzed for the concentration of the expected product (the product of CYP11B2: aldosterone; the product of CYP11B1: cortisol). The concentrations of these products were determined by an HTRF experiment of CisBio.
(§4) In the cell enzyme experiment, the inhibitory effect of the test compound on the generated product can reflect the inhibitory effect thereof on the enzyme. The dose-dependent inhibition of the enzyme activity by the compound was calculated by plotting the concentration of the test compound (x axis) versus the measured product level (y axis). Then, the original data was fitted to a 4-parameter sigmoidal function (Morgan-Mercer-Flodin, MMF model) by least square method: y = (AB + Cx^D) / (B + x^D) in which A is the maximum y value, B is the EC50 determined by XLFit, C is the minimum y value, and D is the slope value. The maximum value A corresponds to the amount of the product detected without an inhibitor, and C corresponds to the amount of the product detected in the G402 cells expressing an empty plasmid.
(§5) The EC50 value of the compound of the present invention was determined by the above G-402 experiment system. The activity of the CYP11B2 enzyme was determined under the conditions of 1 µM 11-deoxycorticosterone and a variable amount of the inhibitor, and the activity of the CYP11B1 enzyme was determined under the conditions of 1 µM 11-deoxycortisol and a variable amount of the inhibitor.

[2] = target: T2, human CYP11B1 (Homo sapiens, UniProt P15538); assay: G-402 cell enzyme experiment, CYP11B1 (cortisol product, HTRF), selectivity versus CYP11B2; assay type: cell-based; details: human selective factor: ratio of CYP11B1 EC50 to CYP11B2 EC50; G-402 cells
T2 construct: The main elements of an expression plasmid include ORF of human CYP11B1 or human CYP11B2; expressed in transfected cells
T2 sequence (P15538 25-503): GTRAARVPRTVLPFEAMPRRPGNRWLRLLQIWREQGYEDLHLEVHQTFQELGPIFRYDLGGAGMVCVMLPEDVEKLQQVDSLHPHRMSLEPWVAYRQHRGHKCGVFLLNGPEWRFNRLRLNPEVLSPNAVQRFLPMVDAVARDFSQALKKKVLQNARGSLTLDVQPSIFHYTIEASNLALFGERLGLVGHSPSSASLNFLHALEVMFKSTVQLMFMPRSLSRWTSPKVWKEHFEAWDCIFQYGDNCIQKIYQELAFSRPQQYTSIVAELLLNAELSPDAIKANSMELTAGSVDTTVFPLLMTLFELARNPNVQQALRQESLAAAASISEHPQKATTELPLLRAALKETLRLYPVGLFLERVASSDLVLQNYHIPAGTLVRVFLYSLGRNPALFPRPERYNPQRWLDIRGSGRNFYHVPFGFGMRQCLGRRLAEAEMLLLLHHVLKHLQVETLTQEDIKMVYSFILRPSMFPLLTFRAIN
Source text: as §1, §2, §3, §4, §5

Row | SMILES | EC50 [1] | hsF [2]
1 | CCC(=O)N1CC2(C1)CN(c1cncc(-c3ccc4nc(OC)ccc4c3)c1)C2 [Example 36, 1-(6-(5-(2-methoxyquinolin-6-yl)pyridin-3-yl)-2,6-diazaspiro[3.3]heptan-2-yl)propan-1-one] | 26 nM | 2766x
2 | CCC(=O)NC1CCCc2c(-c3cc(F)c4c(c3)CCc3nncn3-4)cncc21 (stereo not shown) [Example 37, N-(4-(9-fluoro-4,5-dihydro-[1,2,4]triazolo[4,3-a]quinolin-7-yl)-5,6,7,8-tetrahydroisoquinolin-8-yl)propanamide] | 35 nM | 
3 | COc1ccc2cc(-c3cncc(NC4CN(C(=O)c5cnn(C)c5)C4)c3)ccc2n1 [Example 40, (3-((5-(2-methoxyquinolin-6-yl)pyridin-3-yl)amino)azetidin-1-yl)(1-methyl-1H-pyrazol-4-yl)methanone] | 13 nM | 2541x
4 | COc1ccc2cc(-c3cncc(N4CC5(CN(C(=O)c6cnn(C7CC7)c6)C5)C4)c3)ccc2n1 [Example 43, (1-cyclopropyl-1H-pyrazol-4-yl)(6-(5-(2-methoxyquinolin-6-yl)pyridin-3-yl)-2,6-diazaspiro[3.3]heptan-2-yl)methanone] | 50 nM | > 4023x
5 | COc1ccc2cc(-c3cncc(N4CCN(C(=O)c5cnn(C)c5)CC4)c3)ccc2n1 [Example 50, (4-(5-(2-methoxyquinolin-6-yl)pyridin-3-yl)piperazin-1-yl)(1-methyl-1H-pyrazol-4-yl)methanone] | 8 nM | 
6 | COc1ccc2cc(-c3cncc(N4CC5(CCN(C(=O)c6cnn(C)c6)C5)C4)c3)ccc2n1 [Example 51, (2-(5-(2-methoxyquinolin-6-yl)pyridin-3-yl)-2,6-diazaspiro[3.4]octane-6-yl)(1-methyl-1H-pyrazol-4-yl)methanone] | 24 nM | 157x
7 | COc1ccc2cc(-c3cncc(NC4CN(C(=O)c5cnn(C6CC6)c5)C4)c3)ccc2n1 [Example 54, (1-cyclopropyl-1H-pyrazol-4-yl)(3-((5-(2-methoxyquinolin-6-yl)pyridin-3-yl)amino)azetidin-1-yl)methanone] | 21 nM | 404x
8 | COc1ccc2cc(-c3cncc(NC4CCN(C(=O)c5cnn(C)c5)CC4)c3)ccc2n1 [Example 56, (4-((5-(2-methoxyquinolin-6-yl)pyridin-3-yl)amino)piperidin-1-yl)(1-methyl-1H-pyrazol-4-yl)methanone] | 7 nM | 159x
9 | COc1ccc2cc(-c3cncc(N4CC5(CCN(C(=O)c6cnn(C)c6)CC5)C4)c3)ccc2n1 [Example 62, (2-(5-(2-methoxyquinolin-6-yl)pyridin-3-yl)-2,7-diazaspiro[3.5]nonan-7-yl)(1-methyl-1H-pyrazol-4-yl)methanone] | 14 nM | 174x
10 | COc1ccc2cc(-c3cncc(N4CC5(CC(NC(=O)c6cnn(C)c6)C5)C4)c3)ccc2n1 [Example 63, N-(2-(5-(2-methoxyquinolin-6-yl)pyridin-3-yl)-2-azaspiro[3.3]heptan-6-yl)-1-methyl-1H-pyrazole-4-carboxamide] | 6 nM | 1912x
11 | CCC(=O)NC1CC2(C1)CN(c1cncc(-c3ccc4nc(OC)ccc4c3)c1)C2 [Example 64, N-(2-(5-(2-methoxyquinolin-6-yl)pyridin-3-yl)-2-azaspiro[3.3]heptan-6-yl)propanamide] | 32 nM | 
12 | CCC(=O)N[C@@H]1CCCc2c(-c3ccc4c(c3)sc(=O)n4C)cncc21 [Example 65, (R)-N-(4-(3-methyl-2-oxo-2,3-dihydrobenzo[d]thiazol-6-yl)-5,6,7,8-tetrahydroisoquinolin-8-yl)propanamide] | 89 nM | 
13 | CCC(=O)Nc1cccc2c(-c3ccc4nc(OC)ccc4c3)cncc12 [Example 68, N-(4-(2-methoxyquinolin-6-yl)isoquinolin-8-yl)propanamide] | 33 nM | 

Now from value to molecule:

Row | EC50 [1] | hsF [2] | SMILES
14 | 55 nM | 252x | Cn1c(=O)ccc2cc(-c3cncc(C4=CCN(S(=O)(=O)C5CC5)CC4)c3)ccc21 [Example 70, 6-(1'-(cyclopropylsulfonyl)-1',2',3',6'-tetrahydro-[3,4'-bipyridin]-5-yl)-1-methylquinolin-2(1H)-one]
15 | 4 nM |  | COc1ccc2cc(-c3cncc(N4CCC(NC(=O)c5cnn(C)c5)CC4)c3)ccc2n1 [Example 71, N-(1-(5-(2-methoxyquinolin-6-yl)pyridin-3-yl)piperidin-4-yl)-1-methyl-1H-pyrazole-4-carboxamide]
16 | 10 nM |  | [2H]C([2H])([2H])N(C(=O)c1cnn(C)c1)C1CCN(c2cncc(-c3ccc4nc(OC)ccc4c3)c2)CC1 [Example 72, N-(1-(5-(2-methoxyquinolin-6-yl)pyridin-3-yl)piperidin-4-yl)-1-methyl-N-(methyl-d3)-1H-pyrazole-4-carboxamide]
17 | 17 nM |  | COCC(=O)N1CC2(C1)CN(c1cncc(-c3ccc4nc(OC)ccc4c3)c1)C2 [Example 80, 2-methoxy-1-(6-(5-(2-methoxyquinolin-6-yl)pyridin-3-yl)-2,6-diazaspiro[3.3]heptan-2-yl)ethan-1-one]
18 | 5 nM | 261x | COc1ccc2cc(-c3cncc(N4CC5(CN(C(=O)C6(C#N)CC6)C5)C4)c3)ccc2n1 [Example 81, 1-(6-(5-(2-methoxyquinolin-6-yl)pyridin-3-yl)-2,6-diazaspiro[3.3]heptane-2-carbonyl)cyclopropane-1-carbonitrile]
19 | 18 nM | 842x | COc1ccc2cc(-c3cncc(N4CC5(CN(C(=O)C6CC6)C5)C4)c3)ccc2n1 [Example 82, cyclopropyl (6-(5-(2-methoxyquinolin-6-yl)pyridin-3-yl)-2,6-diazaspiro[3.3]heptan-2-yl)methanone]
20 | 8 nM | 1652x | COc1ccc2cc(-c3cncc(N4CC5(CN(C(=O)c6ccc(C)nc6)C5)C4)c3)ccc2n1 [Example 84, (6-(5-(2-methoxyquinolin-6-yl)pyridin-3-yl)-2,6-diazaspiro[3.3]heptan-2-yl)(6-methylpyridin-3-yl)methanone]
21 | 9 nM |  | CN(c1cncc(-c2ccc3c(c2)sc(=O)n3C)c1)C1CN(C(=O)c2cnn(C)c2)C1 [Example 89, 3-methyl-6-(5-(methyl(1-(1-methyl-1H-pyrazole-4-carbonyl)azetidin-3-yl)amino)pyridin-3-yl)benzo[d]thiazol-2(3H)-one]
22 | 23 nM |  | CCS(=O)(=O)N1CC(Oc2cncc(-c3ccc4c(c3)sc(=O)n4C)c2)C1 [Example 90, 6-(5-((1-(ethylsulfonyl)azetidin-3-yl)oxy)pyridin-3-yl)-3-methylbenzo[d]thiazol-2(3H)-one]
